Reference: patent publication US11339163B2, “BRaf inhibitors and use thereof for treatment of cutaneous reactions” (Lutris Pharma Ltd., priority 2017, dated 2022)
Converted amounts (≈) assume the structure as drawn. Where two headings read alike, the source gives them in different places.

Experiments:
[1] = system: ERK phosphorylation in HEKa cells; test: phospho-ERK in HEKa cells following EGFR inhibitors (Western blot); type: cell-based, human
Procedure: Human normal keratinocyte cells HEKa were purchased from Gibco Rhenium and seeded in 10 cm dishes (300,000 cells/dish) and incubated overnight at 37° C., 5% CO2. Next morning, the medium was replaced to a starvation medium for 2 hours and then the cells were treated for 2 additional hours with the test compounds. Post incubation, the cells were lyzed with RIPA and the protein extracts were analyzed by western blot for Phospho-ERK and total ERK. Untreated cells and 0.1% DMSO treated cells were used as negative control. HKGS growth factors was used as a positive control.
Western blot: 7.5 μg of total extract was loaded on 10% acrylamide gel. Following transfer, the membranes were blocked with TBST/5% skimmed milk and then incubated with Mouse anti Phospho-ERK (1:1000 in TBST 5% BSA, ON at 4° C.) and goat anti Mouse HRP (1:10,000 in TBST 5% BSA, 1-hour RT). The membranes were exposed using SuperSignal West Pico Chemiluminescent Substrate.
The HRP was then inactivated by incubating the membranes for 1 hour with 0.5% sodium azide Following washes and ECL exposure in order to ensure absence of signal, the membranes were re-blocked for 15 min with TBST/5% skimmed milk and then incubated with Rabbit anti total ERK2 (1:500 in TBST 5% BSA, ON at 4° C.), goat anti Rabbit HRP (1:5,000 in TBST 5% BSA, 1-hour RT) and finally exposed using the SuperSignal West Pico Chemiluminescent Substrate. The films were scanned and the signal were quantified using ImageJ software. The results were calculated as Phospho-ERK/total ERK.
HKGS was used as a positive control.

[2] = system: BALB/c-3T3 mouse fibroblasts; test: 3T3 neutral red uptake phototoxicity assay; type: cell-based; details: for IC50: Mus musculus, BALB/c3T3, light or radiation study
Procedure: Therefore, the compounds of the present disclosure were screened for phototoxicity using the 3T3 natural red uptake assay.
In brief, BALB/c-3T3 mouse fibroblasts (originally obtained from ATCC) were seeded in 96-well plates at 12,000 cells per well, and grown for 24 hr. Test compounds and the positive control (chlorpromazine) were solubilized and serially diluted in DMSO. The negative control (histidine) was solubilized and diluted in HBSS. A dilution for all test articles was then made into HBSS at the final testing concentrations. At the start of the assay, the growth medium was removed from the plates and replaced with test agent dilution. Six replicates were used for each concentration. Cells were incubated in the dark with test article for 1 h, exposed to UVA light (2.5 J/cm2 over 18 min) and incubated 24 hrs. in the dark. A parallel non-irradiated plate was treated similarly, except it was stored in the dark, rather than illuminated.
For Neutral Red staining, medium was removed and fresh medium containing 25 μg/mL of Neutral Red (Sigma) was added. After three hours incubation, the cells were washed with PBS, and the cellular dye was solubilized with 1% acetic acid in 50% ethanol. Cellular Neutral Red was measured by its absorbance at 540 nm.
Data analysis: An IC50 (concentration that causes 50% reduction in viability) was calculated for each condition by linear interpolation.
A Photo-Irritation Factor (PIF) was calculated: PIF=IC50(−Irr)/IC50(+Irr)
PIF>5 indicates phototoxicity; 2<PIF<5 indicates probable phototoxicity; PIF<2 indicates no phototoxicity
In addition, the Mean Photo Effect (MPE) was calculated by comparison of the complete concentration-response curves. MPE is a weighted average of the difference in response of equivalent doses normalized by the shift in IC50.
MPE>0.15 indicates phototoxicity; 0.1<MPE<0.15 indicates probable phototoxicity; MPE<0.1 indicates no phototoxicity.

[3] = MPE>0.15 phototoxicity, 0.1-0.15 probable, <0.1 none
[4] = non-irradiated, Neutral Red, read-out: Cell Viability IC50 Minus UVA
[5] = PIF=IC50(−Irr)/IC50(+Irr), >5 phototoxicity, 2-5 probable, <2 none

| SMILES | Comment (photo-toxicity assessment) [2] | Mean MPE [2, 3] | IC50 [2, 4] [mg/L] | Mean PIF [2, 5] | further results |
| --- | --- | --- | --- | --- | --- |
| C#Cc1cccc(Nc2ncnc3cc(OCCOC)c(OCCOC)cc23)c1 [Erlotinib, erlotinib, reference compound] |  |  |  |  | phospho ERK compared to HKGS treated cells [1]: decreased |
| CN(C)CCCN1c2ccccc2Sc2ccc(Cl)cc21 [Chloropromazine, chlorpromazine] | Phototoxic | 0.477 | 31 (≈ 97.2 µM) | 31.6 |  |
| Cc1ccc2c(Nc3ccc(Cl)cc3)nccc2c1Nc1ncccc1-c1ncnc2[nH]cnc12 [Compound C-1] | Non |  |  |  | phototoxicity (3T3 NRU), stated in words [2]: did not show phototoxicity; IC50 ([2]; 0.3 h, read-out: Cell Viability IC50 Plus UVA): 18.1 mg/L; IC50 ([2]; read-out: Cell Viability IC50 Minus UVA): 14 mg/L (≈ 29.2 µM); Mean MPE ([2]; mouse, 24 h): −0.011; Mean PIF ([2]; mouse, 24 h): 0.8 |
| N[C@@H](Cc1c[nH]cn1)C(=O)O [Histidine, histidine] |  | 0.036 | > 1000 | 1 | IC50 ([2]; 0.3 h, UVA 2.5 J/cm2 over 18 min, Neutral Red, read-out: Cell Viability IC50 Plus UVA): > 1000 mg/L |
